US8198333B2, “Cytostatic drug composition” (Geopharma Produktions GmbH, priority 2004, dated 2012)

Columns and labels:
[1] = test system: Panc-1; test: Cytostatic activity, EZ4U test, pancreas carcinoma cell line Panc-1; format: cell-based; conditions: three days
Method: (§1) Cell lines of a colon carcinoma and a pancreas carcinoma, such as Capan-1, DLD-1, HT 29, HCT-8, MLA-PA-CA2, PANCI, BXPC-3, ASPC-1, and HT-29, were examined. The tested cancer cell lines were stored in liquid nitrogen. After defrosting, the cancer cells were cultivated in culture flasks with RPMI-1640+glutamine medium (Gibco® No. 5240025) at 37° C./5% CO2 atmosphere for up to 14 days so that a monolayer of cells was able to form. Thereupon, the cells were harvested with trypsin+EDTA (Gibco® No. 15400-054) and washed twice with an RPMI-medium.
(§2) Apart from poly-[2-(2-ethoxyethoxyethyl)guanidinium hydrochloride], the chemotherapeutic agents cisplatin, epirubicin, mitomycin C and 5-fluorouracil were tested by way of comparison. Therefor, the compounds were at first dissolved according to the respective instructions of the manufacturer and were then stored as a stock solution in aliquots of 1 ml each (concentration of drug substance: 1000 μg/ml) in liquid nitrogen at −180° C. The dissolved substances were used on the very same day.
(§3) In order to determine the cytotoxic activity of the substances, the cancer cells were transferred from the culture flasks with an RPMI-washed suspension at a concentration of 20,000 cells in 200 μl onto microtiter plates. In the presence of varying concentrations of the test substances, the cancer cells were subsequently incubated for three days at a temperature of 37° C. and in an atmosphere of 5% CO2. For the poly-[2-(2-ethoxyethoxyethyl)guanidinium hydrochloride], concentrations of 0.12 to 500 μg/ml (factor 2 dilutions) were used in all test arrangements. After three days of incubation, the evaluation was carried out by means of the nonradioactive cell proliferation and cytotoxicity test EZ4U (Biomedica No. BI-5000 10×96 determinations). After three hours of incubation with EZ4U, the evaluation was carried out photometrically in percent at a wavelength of 49/630 nm in a slidephotometer (extinction of the test sample divided by extinction of the control-sample blank value).

[2] = test system: BxPc-3; test: Cytostatic activity, EZ4U test, pancreas carcinoma cell line BxPc-3; format: cell-based; conditions: three days
Method: as §1, §2, §3

[3] = test system: AsPc-1; test: Cytostatic activity, EZ4U test, pancreas carcinoma cell line AsPc-1; format: cell-based; conditions: three days
Method: as §1, §2, §3

[4] = test system: Capan-1; test: Cytostatic activity, EZ4U test, pancreas carcinoma cell line Capan-1; format: cell-based; conditions: three days
Method: as §1, §2, §3

[5] = test system: HAT-29; test: Cytostatic activity, EZ4U cell proliferation and cytotoxicity test, colon carcinoma cell line HAT-29; format: cell-based; conditions: three days
Method: as §1, §2, §3

[6] = test system: cancer cells; test: Cytostatic activity in cancer cell lines (colon and pancreas carcinoma), summary; format: cell-based; conditions: colon carcinoma (HT-29, HCT-8, DLD-1) and pancreas carcinoma (ASPC-1, BXPC-3, CAPAN-1, PANC-1) cell lines
Method: as §1
as §3, with “After three hours of incubation with EZ4U, the evaluation was carried out photometrically in percent at a wavelength of 49/630 nm in a slidephotometer (extinction of the test sample divided by extinction of the control-sample blank value).” left out

[7] = test system: DLD-1; test: Cytostatic activity, EZ4U test, colon carcinoma cell line DLD-1; format: cell-based; conditions: three days
Method: as §1, §2, §3

[8] = test system: Colon 320DM; test: Cytostatic activity, EZ4U test, colon carcinoma cell line Colon 320DM; format: cell-based; conditions: three days
Method: as §1, §2, §3

[9] = test system: MIA PaCa-2; test: Cytostatic activity, EZ4U test, pancreas carcinoma cell line MIA PaCa-2; format: cell-based; conditions: three days
Method: as §1, §2, §3

[10] = test system: Colon 205; test: Cytostatic activity, EZ4U test, colon carcinoma cell line Colon 205; format: cell-based; conditions: three days
Method: as §1, §2, §3

[11] = test system: HCT-8; test: Cytostatic activity, EZ4U test, colon carcinoma cell line HCT-8; format: cell-based; conditions: three days
Method: as §1, §2, §3

[12] = test system: HCT-15; test: Cytostatic activity, EZ4U test, colon carcinoma cell line HCT-15; format: cell-based; conditions: three days
Method: as §1, §2, §3

[13] = format: in vivo; conditions: intravenous or intraperitoneal, up to 15 mg/kg body weight
Method: After an (intravenous or intraperitoneal) systemic administration of poly-[2-(2-ethoxyethoxyethyl)guanidinium hydrochloride] in amounts of up to 15 mg/kg body weight, serum concentrations of up to 100 μg/ml are measured in the rat's blood after two hours, whereby, at the same time, the tolerance is good. Therefore, poly-[2-(2-ethoxyethoxyethyl)guanidinium hydrochloride] can be used as a cytostatic drug.

[14] = test system: lymphocytes of healthy test persons; test: Vitality of lymphocytes, trypan blue; format: cell-based, human; conditions: for Vitality of lymphocytes in %: 24 hours
Method: In addition, lymphocytes of healthy test persons were examined. In doing so, a total amount of 100 ml blood was drawn into EDTA test tubes. The lymphocytes were isolated from the full blood by means of a Mono-Poly Resolving Medium/Ficol-Hypaque gradient, were washed three times with an HBSS buffer and, prepared in this manner, they were added to the test stock.
as §2
The vitality of the lymphocytes was determined in a suspension of 1.2×10^7/ml at varying concentrations of the test substances. In the presence of the test substances, the cell suspensions were incubated for 24 hours at 37° C. and in an atmosphere of 5% CO2 and were then dyed with trypan blue. After dyeing, the lymphocytes were applied onto the counting chamber and their vitality was evaluated in percent.

Molecule: COc1cccc2c1C(=O)c1c(O)c3c(c(O)c1C2=O)C[C@@](O)(C(=O)CO)C[C@@H]3O[C@H]1C[C@H](N)[C@@H](O)[C@H](C)O1 [Epirubicin]
- vitality in % ([1]; 0.12 μg/ml): 111%
- vitality in % ([1]; 1.19 μg/ml): 43%
- vitality in % ([1]; 11.9 μg/ml): 61%
- vitality in % ([2]; 0.12 μg/ml): 76%
- vitality in % ([2]; 1.19 μg/ml): 55%
- vitality in % ([2]; 11.9 μg/ml): 62%
- vitality in % ([3]; 0.12 μg/ml): 105%
- vitality in % ([3]; 1.19 μg/ml): 59%
- vitality in % ([3]; 11.9 μg/ml): 55%
- vitality in % ([4]; 0.12 μg/ml): 50%
- vitality in % ([4]; 1.19 μg/ml): 35%
- vitality in % ([4]; 11.9 μg/ml): 54%

Molecule: CO[C@@]12[C@H](COC(N)=O)C3=C(C(=O)C(C)=C(N)C3=O)N1C[C@@H]1N[C@@H]12 [Mitomycin C]
- vitality in % ([1]; 0.015 μg/ml): 104%
- vitality in % ([1]; 0.15 μg/ml): 103%
- vitality in % ([1]; 1.5 μg/ml): 55%
- vitality in % ([2]; 0.015 μg/ml): 100%
- vitality in % ([2]; 0.15 μg/ml): 91%
- vitality in % ([2]; 1.5 μg/ml): 47%
- vitality in % ([3]; 0.015 μg/ml): 98%
- vitality in % ([3]; 0.15 μg/ml): 89%
- vitality in % ([3]; 1.5 μg/ml): 65%
- vitality in % ([4]; 0.015 μg/ml): 59%
- vitality in % ([4]; 0.15 μg/ml): 30%
- vitality in % ([4]; 1.5 μg/ml): 22%

Molecule: poly-[2-(2-ethoxyethoxyethyl)guanidinium hydrochloride]
- vitality in % ([5]; 0.125 μg/ml): 76%
- vitality in % ([5]; 0.25 μg/ml): 85%
- vitality in % ([5]; 0.5 μg/ml): 98%
- vitality in % ([5]; 1 μg/ml): 88%
- vitality in % ([5]; 2 μg/ml): 77%
- vitality in % ([5]; 4 μg/ml): 76%
- vitality in % ([5]; 8 μg/ml): 47%
- vitality in % ([5]; 16 μg/ml): 21%
- vitality in % ([5]; 32 μg/ml): 13%
- vitality in % ([5]; 64 μg/ml): 11%
- cytostatic activity [6]: excellent cytostatic activity
- vitality in % ([7]; 2 μg/ml): 103%
- vitality in % ([7]; 4 μg/ml): 86%
- vitality in % ([7]; 8 μg/ml): 49%
- vitality in % ([7]; 16 μg/ml): 26%
- vitality in % ([7]; 32 μg/ml): 17%
- vitality in % ([7]; 64 μg/ml): 15%
- vitality in % ([1]; 2 μg/ml): 88%
- vitality in % ([1]; 4 μg/ml): 90%
- vitality in % ([1]; 8 μg/ml): 55%
- vitality in % ([1]; 16 μg/ml): 30%
- vitality in % ([1]; 32 μg/ml): 16%
- vitality in % ([1]; 64 μg/ml): 11%
- vitality in % ([2]; 2 μg/ml): 63%
- vitality in % ([2]; 4 μg/ml): 74%
- vitality in % ([2]; 8 μg/ml): 44%
- vitality in % ([2]; 16 μg/ml): 18%
- vitality in % ([2]; 32 μg/ml): 11%
- vitality in % ([2]; 64 μg/ml): 9%
- vitality in % ([3]; 2 μg/ml): 92%
- vitality in % ([3]; 4 μg/ml): 70%
- vitality in % ([3]; 8 μg/ml): 50%
- vitality in % ([3]; 16 μg/ml): 15%
- vitality in % ([3]; 32 μg/ml): 12%
- vitality in % ([3]; 64 μg/ml): 13%
- vitality in % ([8]; 2 μg/ml): 79%
- vitality in % ([8]; 4 μg/ml): 37%
- vitality in % ([8]; 8 μg/ml): 26%
- vitality in % ([8]; 16 μg/ml): 24%
- vitality in % ([8]; 32 μg/ml): 22%
- vitality in % ([8]; 64 μg/ml): 21%
- vitality in % ([9]; 2 μg/ml): 106%
- vitality in % ([9]; 4 μg/ml): 97%
- vitality in % ([9]; 8 μg/ml): 58%
- vitality in % ([9]; 16 μg/ml): 16%
- vitality in % ([9]; 32 μg/ml): 12%
- vitality in % ([9]; 64 μg/ml): 11%
- vitality in % ([10]; 2 μg/ml): 70%
- vitality in % ([10]; 4 μg/ml): 59%
- vitality in % ([10]; 8 μg/ml): 27%
- vitality in % ([10]; 16 μg/ml): 16%
- vitality in % ([10]; 32 μg/ml): 16%
- vitality in % ([10]; 64 μg/ml): 15%
- vitality in % ([4]; 2 μg/ml): 115%
- vitality in % ([4]; 4 μg/ml): 111%
- vitality in % ([4]; 8 μg/ml): 95%
- vitality in % ([4]; 16 μg/ml): 114%
- vitality in % ([4]; 32 μg/ml): 79%
- vitality in % ([4]; 64 μg/ml): 46%
- vitality in % ([11]; 0.125 μg/ml): 88%
- vitality in % ([11]; 0.25 μg/ml): 70%
- vitality in % ([11]; 0.5 μg/ml): 79%
- vitality in % ([11]; 1 μg/ml): 85%
- vitality in % ([11]; 2 μg/ml): 90%
- vitality in % ([11]; 4 μg/ml): 114%
- vitality in % ([11]; 8 μg/ml): 91%
- vitality in % ([11]; 16 μg/ml): 34%
- vitality in % ([11]; 32 μg/ml): 15%
- vitality in % ([11]; 64 μg/ml): 11%
- vitality in % ([12]; 2 μg/ml): 81%
- vitality in % ([12]; 4 μg/ml): 81%
- vitality in % ([12]; 8 μg/ml): 69%
- vitality in % ([12]; 16 μg/ml): 25%
- vitality in % ([12]; 32 μg/ml): 18%
- vitality in % ([12]; 64 μg/ml): 16%
- serum concentrations in the rat's blood ([13]; after two hours): up to 100 μg/ml
- tolerance ([13]; rat): good
- Vitality of lymphocytes in % ([14]; 12.5 μg/ml): 98%
- Vitality of lymphocytes in % ([14]; 25 μg/ml): 100%
- Vitality of lymphocytes in % ([14]; 50 μg/ml): 96%
- Vitality of lymphocytes in % ([14]; 100 μg/ml): 98%
- Vitality of lymphocytes in % ([14]; 250 μg/ml): 30%
- Vitality of lymphocytes in % ([14]; 500 μg/ml): 16%
- Vitality of lymphocytes in % ([14]; 1000 μg/ml): 1%
- concentrations from which cytostatic activity has been observed ([14]; healthy endogenous cells such as lymphocytes (table 4)): ≥ 100 µg/mL
